For eight compounds, inhibition results are on record in ChEMBL document CHEMBL1128087, “Novel substituted indolocarbazoles as potent and selective inhibitors of protein kinase C” (Bioorg Med Chem Lett, 1995).

Molecules are shown by their SMILES.

The assay has as its target cAMP-dependent protein kinase (PKA) (Homo sapiens) (UniProt P22694+P17612+P22612). Nature of the assay: In vitro inhibitory activity against Protein Kinase A at a concentration of 10 uM. The assay is classed as protein assay.
In turn, `CN(C)CCCNC(=O)CCn1c2ccccc2c2c3c(c4c5ccccc5[nH]c4c21)C(=O)NC3` showed an inhibition of 41%.

The compound `O=C(CCn1c2ccccc2c2c3c(c4c5ccccc5[nH]c4c21)C(=O)NC3)NCCN1CCOCC1` yielded an inhibition of 49%.

`COC(=O)c1cc(NC(=O)CCn2c3ccccc3c3c4c(c5c6ccccc6[nH]c5c32)C(=O)NC4)cn1C`: the inhibition was found to be 40%.

Regarding `COC(=O)c1cc(C(=O)c2cc(C(=O)c3cc(NC(=O)CCn4c5ccccc5c5c6c(c7c8ccccc8[nH]c7c54)C(=O)NC6)cn3C)cn2C)cn1C`, the inhibition came to 40%.

On to `CN1CCCC1CCNC(=O)CCn1c2ccccc2c2c3c(c4c5ccccc5[nH]c4c21)C(=O)NC3` (stereo not drawn), for which the inhibition came out at 25%.

`O=C(CCn1c2ccccc2c2c3c(c4c5ccccc5[nH]c4c21)C(=O)NC3)NCCN1CCCCC1` displayed an inhibition of 42%.

On to `COC(=O)c1cc(C(=O)c2cc(NC(=O)CCn3c4ccccc4c4c5c(c6c7ccccc7[nH]c6c43)C(=O)NC5)cn2C)cn1C`, for which the inhibition is 43%.

The compound `O=C(CCn1c2ccccc2c2c3c(c4c5ccccc5[nH]c4c21)C(=O)NC3)NCC1CCOC1` (stereo not drawn) displayed an inhibition of 41%.
